Assay results taken from PMC7804859, “A metabolically stable apelin-17 analog decreases AVP-induced antidiuresis and improves hyponatremia” (Nature Communications, 2021).
Several values for one entry are separate records, joined by “and”; a condition that tells them apart may be missing. Equal entries are not always repeated.

Legend:
[1] = Brain apelin-immunoreactive levels in rats (RIA); assay type: in vivo, rat
Procedure: (§1) 187 Apelin radioimmunoassay
(§2) 189 until use for apelin RIA.
(§3) The supernatants were collected and
(§4) The samples were dried and dissolved in
(§5) 201 centrifuged (17000 x g, 4°C, 20 min). The supernatant (4 ml) was collected, and mixed with
(§6) The columns were then treated as described in
(§7) Samples (0.1ml) w ere mixed with 125I-
(§8) 212 used this radioligand instead of [Glp65, Nle75, Tyr77] [125I]-apelin13 since the substitution of
(§9) 214 derivatives as described previously by 3,4.
(§10) 216 incubated for 10 min at room temperature.

[2] = Plasma protein binding (Rapid Equilibrium Dialysis); assay type: in vitro ADME; conditions: RED plate, 12 kDa cutoff, plasma vs phosphate buffer, 10 µmol/l, 4 hours, 37 °C, 600 rpm, UHPLC-MS/MS; value at equilibrium
Procedure: 252 TechMedILL platfor m (Illkirch) reviewed and approved by the agriculture ministry regulating
256 Male Sprague-Dawley rats were killed by decapitation, and trunk blood was collected on ice
257 (into 50 µl of 0.3M EDTA (pH 7.4) per 1 ml of blood). Samples were centrifuged (2,600 x g,
258 4°C, 20 min), and the resulting plasma was split into 500 µl aliquots, to which we added 168
259 µl of 3N HCl before storage at -80°C. The AVP RIA was performed as previously described
260 5, using a specific AVP-[Arg8] antibody (final dilution, 1/4.5) and [125I]-(Tyr2Arg8)-AVP
261 (2200 Ci/mmol, Perkin-Elmer, Billerica, MA; 15000 dpm) as a tracer.
263 Plasma protein binding of LIT01-196 was determined using Thermo Scientific Single-Use
264 RED Plate (Rapid Equilibrium Dialysis) composed of dialysis inserts with a me mbrane cutoff
265 of 12 kDa. Compound (10 µmol/l) was spiked in plasma chamber (donor side); phosphate
266 buffer was placed in the receiving side. The plate was rotated at 37 °C on an orbital shaker at
267 600 rpm for 4 hours. Peptide concentration was determined for the plasma sample that
268 represents the bound fraction, the peptide concentration was deter mined for the buffer sample
269 that represents the free fraction. The samples were analyzed by UHPLC-MS/MS (LC-MS […]
274 proteins. Percentages of bound and free peptides were calculated as follows: % free peptide = […]

in vivo = conditions: mice, 30 min after s.c. 900 nmol/kg
Procedure: as §1
188 Plasma samples (0.5 ml) were acidified with 0.175 ml of 3 mol/l HCl and stored at -80°C
189 until use for apelin RIA. Before thawing the sample on ice, 0.05% BSA was added, and the
190 samples were centrifuged at 20000 x g at 4°C for 10 min. The supernatants were collected and
191 the pH was adjusted to 6.5 with 10 mol/l NaOH and 2 mol/l Tris-HCl buffer (pH 7.4). Apelin
192 was extracted from plasma by mixing the supernatant with 0.3 ml of 0.1% BSA in H2O and 1
193 ml of 1% trifluoroacetic acid (TFA) - 0.1% BSA, and running the mixture on a Sep-Pak C18
194 cartridge (Waters) previously washed with 2 ml 100% acetonitrile and equilibrated with 5 ml
195 1% TFA - 0.1% BSA. The columns then were washed with 3 ml 1% TFA - 0.1% BSA and
196 apelin was eluted with 1.5 ml 100% acetonitrile. […]
208 Plasma or brain apelin levels w ere deter mined by RIA. Samples (0.1ml) w ere mixed with 125I-
211 dilution: 1/4500) to give a total volume of 0.2 ml and were incubated at 4°C overnight. We
as §8, §9
215 We then added 0.5 ml of Amerlex (Amersham RPN 510), and the resulting mixture was
216 incubated for 10 min at room temperature. The tubes were centrifuged at 2600 x g at 4°C for
217 20 min. The supernatant was removed and the radioactivity of the precipitates was measured. […]

[3] = Brain apelin-immunoreactive levels in mice (RIA); assay type: in vivo, mouse
Procedure: Then cells were treated with 10
Results are expressed in femtomoles of cAMP produced
as §1, §2, §3, §4, §5, §6, §7, §8, §9, §10
This antiserum identified the apelin present in the
Most of the apelin in human plasma was […]

rat apelin-R-EGFP = molecular target: T1, rat apelin-R-EGFP (Rattus norvegicus, UniProt Q9JHG3); assay: Inhibition of forskolin-induced cAMP production in CHO cells stably expressing rat apelin-R-EGFP (HTRF); assay type: cell-based; conditions: 5 µmol/l forskolin, 30 min 20 °C
T1 construct: expressed in transfected cells
T1 sequence (Q9JHG3 1-377): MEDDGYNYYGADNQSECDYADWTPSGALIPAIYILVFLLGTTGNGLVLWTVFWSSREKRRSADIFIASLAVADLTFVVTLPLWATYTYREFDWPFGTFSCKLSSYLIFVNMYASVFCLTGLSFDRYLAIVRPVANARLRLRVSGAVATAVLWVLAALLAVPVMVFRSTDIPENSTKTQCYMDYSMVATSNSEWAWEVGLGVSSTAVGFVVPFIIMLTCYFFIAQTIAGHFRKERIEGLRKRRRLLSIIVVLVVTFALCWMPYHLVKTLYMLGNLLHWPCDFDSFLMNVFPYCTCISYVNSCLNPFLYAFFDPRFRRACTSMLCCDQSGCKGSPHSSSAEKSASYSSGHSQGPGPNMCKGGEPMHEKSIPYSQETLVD
Procedure: 152 Supplementary Methods
154 We quantified cAMP production with the cAMP dynamic 2 assay kit (Cisbio Bioassays,
155 Codolet, France), which is based on homogeneous time-resolved fluorescence (HTRF)
156 technology, as previously described 1. For cells expressing the Apelin-R, 2000 CHO cells/well
157 stably expressing rat apelinR-EGFP (clone B70) were added to the 384-well plate and
158 stimulated with 5 µmol/l forskolin (FSK) and various concentrations (0.01 pmol/l to 100 […]
Cells were then lysed, and
165 cAMP levels were determined in accordance with the kit manufacturer’s instructions.
166 Stimulation was performed in stimulation buffer-IBMX (SBI) (Hank’s balanced salt solution
167 (HBSS-Life Technology), 5 mmol/l Hepes, 0.1% BSA stabilizer (Perkin Elmer), 1 mmol/l
168 isobutylmethylxanthine (IBMX, Sigma Aldrich, pH 7.4)). […]

[4] = system: control Sprague-Dawley rats; assay: Effects of i.v. administration on urine output, urine osmolality and water intake in normonatremic rats; assay type: in vivo, rat
Procedure: Male Swiss mice (25–30 g, 4–6 weeks) and male Sprague–Dawley rats (210–230 g, 6–8 weeks) were obtained from Charles River Laboratories (L’Arbresle, France). While housed in our animal facility, they were given free access to normal chow and water, and they were maintained under 12-h light/dark cycles throughout the study. Temperature was maintained between 18 and 22 °C, and humidity between 40 and 60%. When required for i.v. administration, a right femoral venous catheter was implanted in the rats, by tunneling under the skin, under isoflurane anesthesia (4% for induction, 2% for maintenance). Meloxicam (Metacam) was administered postoperatively (1 mg/kg s.c.) for analgesia.

rat apelin-R = molecular target: T2, rat apelin-R (Rattus norvegicus, UniProt Q9JHG3); assay: Radioligand binding ([125I]-pE13F) to membranes from CHO cells stably expressing rat apelin-R-EGFP; conditions: 1 h 20 °C, pH 7.4, new batch of LIT01-196
T2 construct: expressed in transfected cells; membrane preparation
T2 sequence (Q9JHG3 1-377): T1 sequence (Q9JHG3 1-377)
Procedure: Membranes from CHO cells stably expressing rat apelin-R-EGFP were prepared as previously described[23]. […] The reaction was stopped by adding ice-cold binding buffer and filtering through Whatman GF/C filters. The filters were washed and radioactivity was counted with a Wizard 1470 Wallac gamma counter (PerkinElmer, Turku, Finland).

[5] = 15 nmol/kg i.v., control rats, 24 h, n = 6

Compound: CSCC[C@H](NC(=O)[C@@H]1CCCN1C(=O)CNC(=O)[C@H](CCCCN)NC(=O)[C@H](Cc1c[nH]cn1)NC(=O)[C@H](CO)NC(=O)[C@H](CC(C)C)NC(=O)[C@H](CCCNC(=N)N)NC(=O)[C@@H]1CCCN1C(=O)[C@H](CCCNC(=N)N)NC(=O)[C@H](CCC(N)=O)NC(=O)[C@H](CCCNC(=N)N)NC(=O)[C@H](CCCNC(=N)N)NC(=O)[C@H](Cc1ccccc1)NC(=O)[C@H](CCCCN)NC(=O)CCC(F)(F)C(F)(F)C(F)(F)C(F)(F)C(F)(F)C(F)(F)C(F)(F)C(F)(F)F)C(=O)N1CCC[C@H]1C(=O)N[C@@H](Cc1ccccc1)C(=O)O [LIT01-196]
- crossing of the blood-brain barrier ([1]; rats and mice, 30 min after s.c. 900 nmol/kg): does not cross the BBB and does not enter the brain
- Brain apelin ([1]; rats, 30 min after 900 nmol/kg SC, single animals): 1.581 and 0.931 and 1.563 and 1.024 and 1.473
- apelin-IR levels in the brain ([1]; rats, 30 min after s.c. 900 nmol/kg, saline 1.2 ± 0.15, n = 5): 1.3 ± 0.14 pmol/brain
- bound fraction to plasma proteins [2]: 69 ± 7%
- plasma apelin-IR levels, times basal levels (in vivo): 9.7 times
- plasma apelin-IR levels (in vivo; basal 1.3 ± 0.073, n = 5): 12.4 ± 2.5 pmol/mL
- apelin.brain ([3]; LIT01-196 900 nmol/kg, individual animals (Fig. S2C source data)): 0.257 and 0.271 and 0.513 and 0.58
- apelin-IR levels in the brain ([3]; mice, 30 min after s.c. 900 nmol/kg, saline 0.391 ± 0.045, n = 5): 0.440 ± 0.073 pmol/brain
- IC50 (rat apelin-R-EGFP): 1.7 ± 0.5 nM
- decrease in urine osmolality relative to saline [4, 5]: 38%
- increase in urine output relative to saline [4, 5]: 95%
- water intake ([4]; i.v., K17F 400 nmol/kg, LIT01-196 15 nmol/kg, 24 hours): did not induce a significant change
- Ki (rat apelin-R): 0.34 ± 0.05 nM
